From patent US10730826B2, “Ketone inhibitors of lysine gingipain” (CORTEXYME, INC., priority 2016, dated 2020) come the findings set out here.

For series [1], the target named is lysine gingipain (Kgp) (Porphyromonas gingivalis (Bacteroides gingivalis), UniProt P72194). In words: biochemical. In kind it is biochemical. The method, then:
(§1) The specific assay conditions were as follows. Buffer: pH=7.5, 100 mM Tris-HCl, 75 mM NaCl, 2.5 mM CaCl2), 10 mM cysteine, 1% DMSO after all additions. Protein: 0.1 nM Kgp, isolated from culture of Porphyromonas gingivalis, as described by Pike et al. (J. Biol. Chem. 1994, 269(1), 406), and Potempa and Nguyen (Current Protocols in Protein Science. 2007, 21.20.1-21.20.27). Fluorogenic substrate: 10 μM Z-His-Glu-Lys-MCA. Time=90 minutes. Temperature=37° C.
(§2) Further assays to measure the inhibitory activity of compounds of the present invention against Kgp and cathepsins B, H, K, L, and S were conducted as described in Example 66. The capacities of the compounds to inhibit the activity of cathepsins F, V, and Z were also measured.

Series [2] deals with lysine gingipain (Kgp). In words: biochemical. Type of series: biochemical, Porphyromonas gingivalis. As to conditions: as compared to reference compound 73. The method, then: as §1, §2
The target in series [3] is Cathepsin L (Homo sapiens (Human), UniProt P07711). In words: Cathepsin L inhibition assay. Type of series: biochemical. As to conditions: Table 3; read-out: IC50 (nM) CatL. The method, then: (§3) The capacities of compounds of the present invention to inhibit the activity of cathepsins B, H, K, L, and S were measured in similar assays. Boc-Leu-Arg-Arg-AMC (20 μM) in sodium acetate buffer (50 mM, pH 5.5) containing DTT (1 mM) and EDTA (2 mM) was used for the Cathepsin B assay. L-Arg-AMC (20 μM) in sodium acetate buffer (50 mM, pH 5.5) containing DTT (1 mM) and EDTA (2 mM) was used for the Cathepsin H assay. Z-Phe-Arg-AMC (10 μM) in HEPES buffer (50 mM, pH 7.4) containing DTT (2.5 mM) and EDTA (1 mM) was used for the Cathepsin K assay. Z-Phe-Arg-AMC (20 μM) in sodium acetate buffer (50 mM, pH 5.5) containing DTT (1 mM) and EDTA (2 mM) was used for the Cathepsin L assay. Z-Leu-Arg-AMC (10 μM) in sodium acetate buffer (25 mM, pH 4.5) containing DTT (2.5 mM) and NaCl (50 mM) was used for the Cathepsin S assay. The capacities of the compounds to inhibit the activity of cathepsins F, V, and Z were also measured.
as §2

Series [4] concerns the target Cathepsin K (Homo sapiens (Human), UniProt P43235). Kind of series: Cathepsin K inhibition assay. Type of series: biochemical. As to conditions: Table 3; read-out: IC50 (nM) CatK. The method, then:
as §3, §2

Series [5] deals with Cathepsin B (Homo sapiens (Human), UniProt P07858). In words: Cathepsin B inhibition assay. Type of series: biochemical. As to conditions: Table 3; read-out: IC50 (nM) CatB. The method, then:
as §3, §2

Series [6] deals with Cathepsin S (Homo sapiens (Human), UniProt P25774). Kind of series: Cathepsin S inhibition assay. Type of series: biochemical. As to conditions: Table 3; read-out: IC50 (nM) CatS. The method, then: as §3, §2
Series [7] is described as follows: Pharmacokinetics in male CD-1 mice dosed p.o. In kind it is in vivo. As to conditions: p.o. 10 mg/kg, compared to reference compound 73.
In series [8] the target is Cathepsin H (Homo sapiens (Human), UniProt P09668). In words: Cathepsin H inhibition assay. In kind it is biochemical. As to conditions: Table 3; read-out: IC50 (nM) CatH. The method, then: as §3, §2

One may read the IC50 as the concentration needed to halve the response being measured. The compound `NCCCCC(NC(=O)c1cccc(F)c1)C(=O)COc1c(F)cccc1F` (stereo not shown) [Compound 26a] yielded an IC50 in series [1] (IC50 (nM) Kgp, Table 4) of 0.09 nM.

For the compound `NCCCC[C@H](NC(=O)C1CCCC1)C(=O)COc1cccc(F)c1` [Compound 7, (S)—N-(7-amino-1-(3-fluorophenoxy)-2-oxoheptan-3-yl)cyclopentanecarboxamide], in series [2], the “selectivity for Kgp over endogenous cathepsins” value is “increased selectivity”.

As to `CN(C)c1ccc(/N=N/c2ccc(C(=O)NCc3cc(F)c(OCC(=O)C(CCCCN)NC(=O)c4cccc(N=[N+]=[N-])c4)c(F)c3)cc2)cc1` (stereo not shown) [Compound 44a], the half-inhibitory concentration (IC50) came to 3.04 nM in series [1] (IC50 (nM) Kgp, Table 4) and 3 nM in series [1] (Kgp IC50 (nM), Table 5, probe compounds).

With `NCCCCC(NC(=O)C1CCCC1)C(=O)COc1cc(F)cc(F)c1` (stereo not shown) [Compound 8a], the IC50 was more than 100000 nM in series [3]; more than 100000 nM in series [4]; 68300 nM in series [5]; 0.34 nM in series [1] (IC50 (nM) Kgp, Table 3); more than 100000 nM in series [6].

As for `NCCCCC(NC(=O)C1CCCC1)C(=O)COc1cc(F)cc(F)c1F` (stereo not shown) [Compound 4a], the IC50 in series [3] is more than 100000 nM; in series [4], more than 100000 nM; in series [5], 2640 nM; in series [1] (IC50 (nM) Kgp, Table 3) it was 0.07 nM; in series [6], more than 100000 nM.

The compound `CS(=O)(=O)CC(=O)C(CCCCN)NC(=O)C1CCCC1` (stereo not shown) [Compound 20a] returned an IC50 in series [1] (IC50 (nM) Kgp, Table 3) of more than 100 nM.

In turn, `NCCCCC(NC(=O)c1cccc(F)n1)C(=O)COc1c(F)cccc1F` (stereo not shown) [Compound 28a] showed a half-inhibitory concentration (IC50) in series [1] (IC50 (nM) Kgp, Table 4) of 0.34 nM.

Take `NCCCCC(NC(=O)C1CCCC1)C(=O)COc1cccc(F)c1F` (stereo not shown) [Compound 5a]: the concentration for half-maximal inhibition (IC50) in series [3] was more than 100000 nM; in series [4] it was more than 100000 nM; in series [5] it was 21500 nM; in series [1] (IC50 (nM) Kgp, Table 3) it was 0.15 nM; in series [6] it was more than 100000 nM.

Consider `NCCCC[C@H](NC(=O)C1CCCC1)C(=O)COc1ccon1` [Compound 49, (S)—N-(7-amino-1-(isoxazol-3-yloxy)-2-oxoheptan-3-yl)cyclopentanecarboxamide], for which the “concentrations in the brain and cerebrospinal fluid (CSF)” value in series [7] is recorded as “reduced concentrations in the brain and/or cerebrospinal fluid”.

As to `NCCCCC(NC(=O)c1ccnc(F)c1)C(=O)COc1c(F)cccc1F` (stereo not shown) [Compound 31a], in series [1] (IC50 (nM) Kgp, Table 4), the half-inhibitory concentration (IC50) is 0.15 nM.

In series [1] (IC50 (nM) Kgp, Table 4), `NCCCCC(NC(=O)c1ccc(F)cc1)C(=O)COc1c(F)cccc1F` (stereo not shown) [Compound 35a] displayed an IC50 of 0.1 nM.

In the case of `NCCCCC(NC(=O)C1CCCC1)C(=O)Cn1ccc(=O)nc1` (stereo not shown) [Compound 40a], the midpoint of inhibition in series [1] (IC50 (nM) Kgp, Table 4), the IC50, lay at 30.3 nM.

For the compound `NCCCCC(NC(=O)C1CCCC1)C(=O)COc1ccccc1F` (stereo not shown) [Compound 3a], the 50% inhibitory concentration (IC50) was more than 100000 nM in series [3]; more than 100000 nM in series [4]; 52200 nM in series [5]; 0.64 nM in series [1] (IC50 (nM) Kgp, Table 3); more than 100000 nM in series [6].

In series [1] (IC50 (nM) Kgp, Table 4), `NCCCCC(NC(=O)c1cccnc1F)C(=O)COc1c(F)cccc1F` (stereo not shown) [Compound 32a] yielded a half-inhibitory concentration (IC50) of 0.08 nM.

In series [1] (IC50 (nM) Kgp, Table 4), `NCCCCC(NC(=O)c1cccnc1Br)C(=O)COc1c(F)cccc1F` (stereo not shown) [Compound 34a] showed an IC50 of 0.13 nM.

The compound `COC(C)(C)C(=O)NC(CCCCN)C(=O)COc1cnc(C)nc1` (stereo not shown) [Compound 65a] gave a 50% inhibitory concentration (IC50) in series [1] (IC50 (nM) Kgp, Table 4) of 0.16 nM.

Regarding `CSCC(=O)C(CCCCN)NC(=O)C1CCCC1` (stereo not shown) [Compound 16a], the IC50 in series [1] (IC50 (nM) Kgp, Table 3) was more than 100 nM.

`NCCCCC(NC(=O)c1ccc(F)nc1)C(=O)COc1c(F)cccc1F` (stereo not shown) [Compound 29a] registered an IC50 in series [1] (IC50 (nM) Kgp, Table 4) of 0.31 nM.

`NCCCCC(NC(=O)c1cccc(OCCF)c1)C(=O)COc1c(F)cccc1F` (stereo not shown) [Compound 27a]: the midpoint of inhibition in series [1] (IC50 (nM) Kgp, Table 4), the IC50, lay at 0.27 nM.

In turn, `NCCCCC(NC(=O)C1CCCC1)C(=O)Cn1cnccc1=O` (stereo not shown) [Compound 39a] yielded an IC50 in series [1] (IC50 (nM) Kgp, Table 4) of more than 100 nM.

`NCCCCC(NC(=O)c1ccncc1)C(=O)COc1c(F)ccc(F)c1F` (stereo not shown) [Compound 52a] returned a half-maximal inhibitory concentration (IC50) in series [1] (IC50 (nM) Kgp, Table 4) of 0.06 nM.

With `NCCCC[C@H](NC(=O)C1CCCC1)C(=O)COc1c(F)ccc(F)c1F` (racemic) [1a - non-racemic], the IC50 was 560 nM in series [8]; 4680 nM in series [3]; 170 nM in series [4]; 380 nM in series [5]; 29500 nM in series [6].
